Experimental data reported in patent US11534457B2, “Use of dextran sulfate” (priority 2017, dated 2022).

Columns and labels:
[1] = system: βIII-tubulin expression in mouse cortical neurons; assay: βIII-tubulin immunostaining (differentiation-related protein expression); format: cell-based; conditions: 48 h
Experimental: Neurons were cultured as 40,000 cells per well and Schwann cells 3,000 cells per. Cells were treated after 24 hours. The number of cells per well depended on the growth phenotype, proliferative capacity, etc.
PNGM was prepared by adding PNGM Singlequots (Lonza) to PNBM medium and pre-warmed to 37° C. Cells were thawed in a 37° C. water bath for no longer than 2 min and gently transferred into a 15 ml tube. 5 ml of medium was gently added drop-wise. Cell suspension was mixed by inverting the tube carefully twice. Cells were counted with a Cellometer AUTO T4 (Nexcelom Bioscience). 40,000 cells per well were seeded in previously coated 96-well plates. Cells were incubated at 37° C. with 5% CO2. […]
LMW-DS was prepared in the culture media of choice for each cell line and added to the respective wells in the doses 0.01 and 0.1 mg/ml. For cell survival assays cells were analyzed after 24 and 48 hours in eight identical wells/dose/time point. Differentiation and protein expression assay was analyzed after 48 hours, also in octuplicates. […]
The Acumen cytometer allows the direct cytometric analysis of attached cells without prior detachment. […] The protein content of the cells can also be directly measured and expressed as either ‘total protein content’ or ‘mean protein content’.

[2] = system: SAg system [PBMC and HUVEC+TCR ligands]; assay: BioMAP SAg system; format: cell-based, Human
Excerpt: (§1) In this study LMW-DS was characterized by profiling in the BioMAP® Diversity PLUS panel. The BioMAP® panel consists of human primary cell-based systems designed to model different aspects of the human body in an in vitro format. The 12 systems in the BioMAP® Diversity PLUS panel (Table 32) allow test agent characterization in an unbiased way across a broad set of systems modeling various human disease states. The BioMA®P systems are constructed with one or more primary cell types from healthy human donors, with stimuli, such as cytokines or growth factors, added to capture relevant signaling networks that naturally occur in human tissue or pathological conditions. […]
(§2) Systems are derived from either single cell types or co-culture systems. […] Test agents prepared in either DMSO (small molecules; final concentration 0.1%) or PBS (biologics) are added at the indicated concentrations 1-hr before stimulation, and remain in culture for 24-hrs or as otherwise indicated (48-hrs, MyoF system; 72-hrs, BT system (soluble readouts); 168-hrs, BT system (secreted IgG)). […] Soluble factors from supernatants are quantified using either HTRF® detection, bead-based multiplex immunoassay or capture ELISA. Overt adverse effects of test agents on cell proliferation and viability (cytotoxicity) are detected by sulforhodamine B (SRB) staining, for adherent cells, and alamarBlue® reduction for cells in suspension. […]

[3] = system: CASM3C system [coronary artery smooth muscle cells+(IL-1β, TNFα and IFNγ)]; assay: BioMAP CASM3C system; format: cell-based, Human
Excerpt: as §1, §2

low molecular weight dextran sulfate [LMW-DS]
βIII-tubulin intensity ([1]; 0.01 and 0.1 mg/ml): significantly increased
size of βIII-tubulin positive cells vs control culture [1]: larger
Increased biomarker activity [2]: IL-8
Decreased biomarker activity ([3]; CASM3C system): VCAM-1, MIG
key inflammation biomarkers including MIG, VCAM, IP-10 and ITAC ([3]; all tested concentrations): decreased over all tested concentrations
